Reference: patent publication US20080045611A1, “Methods for the therapeutic use of a carbonic anhydrase inhibitor for reducing spinal cord edema” (priority 2006, published 2008)

Experiment: Case: patient with ascending spinal cord edema after thoracic fracture and spinal cord injury, treated intravenously
Type: in vivo
Conditions: spinal cord edema on MRI after laminectomy and surgical fixation, intravenous dose of 500 mg in sterile saline, within a short period
Description: A patient, suffers a fractured thoracic vertebrae and spinal cord injury. […] An intravenous dose of 500 mg of acetazolamide in sterile saline is administered.

Structure (SMILES): CC(=O)Nc1nnc(S(N)(=O)=O)s1 [acetazolamide]
- neurological outcome (sensory and motor functions): regains sensory and motor functions in their upper extremities
